In brackets after ≈: the same amount, converted by molar mass. Read-outs that look alike come from different tables or passages of the source.
How the values were obtained:
Assay type in all cases: physicochemical
[1] = Storage stability at 40° C. for 20 days, purity and content by HPLC; settings: for Content: external standard method; for Purity: internal standard method
Description: Agomelatine crystalline forms VI and VIII (obtained through embodiment 2) are each placed in thermostatic containers at a temperature of 40° C. and stored for 20 days, with the stability of these samples being studied using the method of High Performance Liquid Chromatography.
1. Purity Measurement of the Sample
Chromatographic conditions: Octadecyl silane chemically bonded silica is used as packing; a mixed solution of 10 mmol/L phosphate buffer (adjusted to pH 7.0 with sodium hydroxide) and acetonitrile in the ratio 2:7 by volume acts as the mobile phase; column temperature 40° C.; and detection wavelength 220 nm. Purity is measured using an internal standard method.
In the mobile phase, crystalline forms VI and VIII are distributed into 1 mg/mL solutions, 10 μL of each of which are then passed into a liquid chromatograph, with their chromatograms being recorded.
The reference sample purity measurement method was used, with measurements being made using an […], the results can be seen in Table I.

[2] = Determination of crystalline stability (pharmacopoeia stability assessment method); design: key to Crystalline stability, long term testing (6 months) / Crystalline stability, long term testing (9 months) / Crystalline stability, long term testing (12 months) / Crystalline stability, influencing factor: high temperature / Crystalline stability, influencing factor: illumination / Crystalline stability, influencing factor: high humidity / Crystalline stability, accelerated testing: √—stable; x—unstable; settings: for Crystalline stability, influencing factor: high temperature: 60° C.; for Crystalline stability, influencing factor: high temperature / Crystalline stability, influencing factor: high humidity / Crystalline stability, influencing factor: illumination: exposed for 10 days; for Crystalline stability, influencing factor: high humidity: 92.5% RH; for Crystalline stability, influencing factor: high humidity / Crystalline stability, long term testing (6 months) / Crystalline stability, long term testing (9 months) / Crystalline stability, long term testing (12 months): 25° C.; for Crystalline stability, accelerated testing: hermetically sealed for 6 months, 30° C., 65% RH; for Crystalline stability, long term testing (6 months) / Crystalline stability, long term testing (9 months) / Crystalline stability, long term testing (12 months): hermetically sealed, 60% RH
Excerpt: 4. Determination of Crystalline Stability

[3] = Measurement of water solubility (HPLC, external standard); settings: for solubility: water
Excerpt: 3. Measurement of Water Solubility
The HPLC method was used to determine water solubility, with measurements being made using an external standard method.

[4] = after storage in thermostatically controlled containers at 40° C. for 20 days
[5] = compared with crystalline form VI

SMILES	Content [1, 4] [%]	Purity [1, 4] [%]	Content ([1]; before storage) [%]	Purity ([1]; before storage) [%]	Crystalline stability, influencing factor: high temperature [2]	Crystalline stability, influencing factor: high humidity [2]	Crystalline stability, influencing factor: illumination [2]	Crystalline stability, accelerated testing [2]	Crystalline stability, long term testing (6 months) [2]	Crystalline stability, long term testing (9 months) [2]	Crystalline stability, long term testing (12 months) [2]	Crystal transition under extreme conditions ([2]; high temperature of 60° C. for 10 days)	solubility ([3]; read-out: Solubility) [µg/mL]	Stability under high temperature compared with crystalline form VI [2, 5]	Solubility compared with crystalline form VI [3, 5]	solubility [3] [µg/mL]
COc1ccc2cccc(CCNC(C)=O)c2c1 [Crystalline form VI, N-[2-(7-methoxy-1-naphthyl)ethyl]acetamide, reference compound]	99.8	99.6	100.1	99.7	x*	√	√	√	√	√	x	small amounts of crystal transition can occur	336 (≈ 1380 µM)	–	–	–
COc1ccc2cccc(CCNC(C)=O)c2c1 [Form VIII, N-[2-(7-methoxy-1-naphthyl)ethyl]acetamide]	100.1	99.7	100.3	99.8	√*	√	√	√	√	√	√	–	–	greater stability under high temperature	comparable solubility	335 (≈ 1380 µM)

From patent US20140088197A1, “MIXED CRYSTAL AGOMELATINE (FORM VIII), PREPARATION METHOD AND USE THEREOF AND PHARMACEUTICAL COMPOSITION CONTAINING SAME” (LES LABORATORIES SERVIER, priority 2011, published 2014)
